Assay results reported in US9962383B2, “Compounds, compositions and methods of agelastatin alkaloids” (Massachusetts Institute of Technology, priority 2013, dated 2018).

Key:
HL-60 = experiment: 48-hour IC50 by MTS, HL-60 acute promyelocytic leukemia cells; assay type: cell-based, human
Protocol: (§1) Cells were grown in media supplemented with fetal bovine serum (FBS) and antibiotics (100 μg/mL penicillin and 100 U/mL streptomycin). […] Cells were incubated at 37° C. in a 5% CO2, 95% humidity atmosphere.
(§2) In a 96-well plate, compounds were pre-added as DMSO stocks (1% final) in triplicate to achieve final concentrations of 1 nM to 10 μM on a half log scale. DMSO and cell-free wells served as the live and dead control, respectively. […] IC50 values were determined from three or more independent experiments using TableCurve (San Jose, Calif.).

A549 = experiment: 48-hour IC50 by SRB, A549 non-small cell lung carcinoma cells; assay type: cell-based, human
Protocol: as §1
(§3) Adherent cells (HeLa, A549, BT549, and IMR90) were added into 96-well plates (5,000 cells/well for HeLa cell line; 2,000 cells/well for A549, BT549, and IMR90 cell lines) in 100 μL media and were allowed to adhere for 2-3 hours. Compounds were solubilized in DMSO as 100× stocks, added directly to the cells (100 μL final volume), and tested over a range of concentrations (1 nM to 10 μM) in triplicate (1% DMSO final) on a half-log scale. DMSO and cell-free wells served as the live and dead control, respectively. […] Briefly, media was removed from the plate, and cells were fixed by the addition of 100 μL cold 10% trichloroacetic acid in water. After incubating at 4° C. for 1 h, the plates were washed in water and allowed to dry. Sulforhordamine B was added as a 0.057% solution in 1% acetic acid (100 μL), and the plates were incubated at room temperature for 30 min, washed in 1% acetic acid, and allowed to dry. […] IC50 values were determined from three or more independent experiments using TableCurve (San Jose, Calif.).

[1] = system: procaspase-3 and PARP-1 cleavage; experiment: Western blot analysis of procaspase-3 and PARP-1 cleavage in U-937 cells; assay type: cell-based, human; conditions: 24 hours
Protocol: FIG. 2. […] Western blot analysis of procaspase-3 and PARP-1 cleavage at 24 hours in U-937 cells using β-actin as loading control. Compounds were tested at indicated concentrations and STS (10 nM); C3=caspase-3; PARP=poly(ADP-ribose) polymerase 1; PC3=procaspase-3; STS=staurosporine.

U-937 = experiment: 48-hour IC50 by MTS, U-937 lymphoma cells; assay type: cell-based, human
Protocol: as §1, §2

Jurkat = experiment: 48-hour IC50 by MTS, Jurkat acute T-cell leukemia cells; assay type: cell-based, human
Protocol: as §1, §2

BT549 = experiment: 48-hour IC50 by SRB, BT549 breast carcinoma cells; assay type: cell-based, human
Protocol: as §1, §3

[2] = system: human cell lines (U-937, HeLa, A549, BT549, IMR90); experiment: Ability to induce cell death in the panel of five human cell lines (Table 3); assay type: cell-based; conditions: 48-hour exposure, 1 nM to 10 μM, cell lines of Table 3
Protocol: Six (−)-agelastatins along with eight closely related derivatives prepared in the above examples were tested (Table 3). The six (−)-agelastatin alkaloids (1-6, respectively), (−)-O-methyl-di-epi-agelastatin A (50), (−)-dehydroagelastatin A (51), (−)-di-epi-agelastatin C (52), (+)-O-methyl-pre-agelastatin A and D (39 and 53, respectively), along with bicyclic pyrroles (+)-44, (+)-45, and triazone (+)-48 were tested for their ability to induce cell death in four human cancer cell lines (U-937, lymphoma; HeLa, cervical carcinoma; A549, non-small cell lung carcinoma; and BT549, breast carcinoma) and one immortalized normal human cell line (IMR90, lung fibroblasts) after a 48-hour exposure. […] Furthermore, enhanced activities in U-937 (20×) cell relative to the other cell lines (Table 3) were observed.
Adherent cells (HeLa, A549, BT549, and IMR90) were added into 96-well plates (5,000 cells/well for HeLa cell line; 2,000 cells/well for A549, BT549, and IMR90 cell lines) in 100 μL media and were allowed to adhere for 2-3 hours. Compounds were solubilized in DMSO as 100× stocks, added directly to the cells (100 μL final volume), and tested over a range of concentrations (1 nM to 10 μM) in triplicate (1% DMSO final) on a half-log scale. DMSO and cell-free wells served as the live and dead control, respectively. After 48 h of continuous exposure, the plates were evaluated using the SRB colorimetric assay as described previously (V. Vichai, K. Kirtikara, Nature Prot., 2006, 1, 1112). Briefly, media was removed from the plate, and cells were fixed by the addition of 100 μL cold 10% trichloroacetic acid in water. After incubating at 4° C. for 1 h, the plates were washed in water and allowed to dry. Sulforhordamine B was added as a 0.057% solution in 1% acetic acid (100 μL), and the plates were incubated at room temperature for 30 min, washed in 1% acetic acid, and allowed to dry. The dye was solubilized by adding 10 mM Tris base solution (pH 10.5, 200 μL) and incubating at room temperature for 30 min Plates were read at λ=510 nm. IC50 values were determined from three or more independent experiments using TableCurve (San Jose, Calif.).
In a 96-well plate, compounds were pre-added as DMSO stocks (1% final) in triplicate to achieve final concentrations of 1 nM to 10 μM on a half log scale. DMSO and cell-free wells served as the live and dead control, respectively. Suspension cells (U-937, CEM, CA46, Daudi, HL-60, and Jurkat; 10,000 cells/well) cells were distributed in 100 μL media to the compound-containing plate. After 48 h, cell viability was assessed by adding 20 μL of a PMS/MTS solution (A. H. Cory, T. C. Owen, J. A. Barltrop, J. G. Cory, Cancer Commun., 1991, 3, 207) to each well, allowing the dye to develop at 37° C. until the live control had processed MTS, and reading the absorbance at λ=490 nm. IC50 values were determined from three or more independent experiments using TableCurve (San Jose, Calif.).

CN1C(=O)N[C@H]2[C@@H]3NC(=O)c4ccc(Br)n4[C@@H]3C[C@]21O [(−)-1, (−)-agelastatin A]
IC50 (HL-60): 138 ± 66 nM | IC50 (A549): 1050 ± 140 nM | activation of procaspase-3 to active caspase-3 and cleavage of PARP-1 [1]: dose-dependent activation | IC50 (U-937): 67 ± 3 nM | IC50 (Jurkat): 74 ± 7 nM | IC50 (BT549): 278 ± 76 nM | activity (ability to induce cell death) in words [2]: highest potency in all cell lines tested
